Results from the supplement of paper PMC10307832.

Columns and labels:
Assay in all cases: relative viability (nuclei count vs DMSO), 5 days (fraction); higher = more cells survive
A-427 = tested on: A-427
How it was run: (§1)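 Lung cancer cell lines in 1536-well plates got either a single drug or a fixed anchor-drug dose together with five library-drug doses (not always all listed) in √10 steps, by pin tool, on the day after seeding. Nuclei were counted after 5 days, and relative viability is the treated-to-vehicle ratio of nuclei counts. Values are medians of duplicate plates.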

ABC-1 = tested on: ABC-1
How it was run: as §1

CAL-12T = tested on: CAL-12T
How it was run: as §1

H3255 = tested on: H3255
How it was run: as §1

LCLC-97TM1 = tested on: LCLC-97TM1
How it was run: as §1

LK-2 = tested on: LK-2
How it was run: as §1

NCI-H1355 = tested on: NCI-H1355
How it was run: as §1

NCI-H1395 = tested on: NCI-H1395
How it was run: as §1

NCI-H1651 = tested on: NCI-H1651
How it was run: as §1

NCI-H1666 = tested on: NCI-H1666
How it was run: as §1

NCI-H1792 = tested on: NCI-H1792
How it was run: as §1

NCI-H1915 = tested on: NCI-H1915
How it was run: as §1

NCI-H2085 = tested on: NCI-H2085
How it was run: as §1

NCI-H2087 = tested on: NCI-H2087
How it was run: as §1

NCI-H2228 = tested on: NCI-H2228
How it was run: as §1

NCI-H322M = tested on: NCI-H322M
How it was run: as §1

NCI-H358 = tested on: NCI-H358
How it was run: as §1

NCI-H661 = tested on: NCI-H661
How it was run: as §1

NCI-H838 = tested on: NCI-H838
How it was run: as §1

PC-14 = tested on: PC-14
How it was run: as §1

PC-3 [JPC-3] = tested on: PC-3 [JPC-3]
How it was run: as §1

SK-MES-1 = tested on: SK-MES-1
How it was run: as §1

UMC-11 = tested on: UMC-11
How it was run: as §1

Compound: Cc1cnc(-c2cnc(NCCNc3ccc(C#N)cn3)nc2-c2ccc(Cl)cc2Cl)[nH]1 + O=C(c1cc(Cc2n[nH]c(=O)c3ccccc23)ccc1F)N1CCN(C(=O)C2CC2)CC1 [Olaparib] (partner 8 µM)
- relative viability (A-427; first compound 0.08 µM): 0.759
- relative viability (A-427; first compound 0.253 µM): 0.711
- relative viability (A-427; first compound 0.8 µM): 0.822
- relative viability (A-427; first compound 2.53 µM): 0.743
- relative viability (ABC-1; first compound 0.08 µM): 0.788
- relative viability (ABC-1; first compound 0.253 µM): 0.834
- relative viability (ABC-1; first compound 0.8 µM): 0.78
- relative viability (ABC-1; first compound 2.53 µM): 0.763
- relative viability (CAL-12T; first compound 0.08 µM): 0.686
- relative viability (CAL-12T; first compound 0.253 µM): 0.698
- relative viability (CAL-12T; first compound 0.8 µM): 0.802
- relative viability (CAL-12T; first compound 2.53 µM): 0.756
- relative viability (H3255; first compound 0.08 µM): 0.585
- relative viability (H3255; first compound 0.253 µM): 0.543
- relative viability (H3255; first compound 0.8 µM): 0.542
- relative viability (H3255; first compound 2.53 µM): 0.563
- relative viability (LCLC-97TM1; first compound 0.08 µM): 0.379
- relative viability (LCLC-97TM1; first compound 0.253 µM): 0.36
- relative viability (LCLC-97TM1; first compound 0.8 µM): 0.417
- relative viability (LCLC-97TM1; first compound 2.53 µM): 0.316
- relative viability (LK-2; first compound 0.08 µM): 0.728
- relative viability (LK-2; first compound 0.253 µM): 0.543
- relative viability (LK-2; first compound 0.8 µM): 0.611
- relative viability (LK-2; first compound 2.53 µM): 0.78
- relative viability (NCI-H1355; first compound 0.08 µM): 0.793
- relative viability (NCI-H1355; first compound 0.253 µM): 0.648
- relative viability (NCI-H1355; first compound 0.8 µM): 0.749
- relative viability (NCI-H1355; first compound 2.53 µM): 0.716
- relative viability (NCI-H1395; first compound 0.08 µM): 0.496
- relative viability (NCI-H1395; first compound 0.253 µM): 0.435
- relative viability (NCI-H1395; first compound 0.8 µM): 0.504
- relative viability (NCI-H1395; first compound 2.53 µM): 0.47
- relative viability (NCI-H1651; first compound 0.08 µM): 0.175
- relative viability (NCI-H1651; first compound 0.253 µM): 0.192
- relative viability (NCI-H1651; first compound 0.8 µM): 0.2
- relative viability (NCI-H1651; first compound 2.53 µM): 0.182
- relative viability (NCI-H1666; first compound 0.08 µM): 0.775
- relative viability (NCI-H1666; first compound 0.253 µM): 0.732
- relative viability (NCI-H1666; first compound 0.8 µM): 0.765
- relative viability (NCI-H1666; first compound 2.53 µM): 0.781
- relative viability (NCI-H1792; first compound 0.08 µM): 0.377
- relative viability (NCI-H1792; first compound 0.253 µM): 0.357
- relative viability (NCI-H1792; first compound 0.8 µM): 0.345
- relative viability (NCI-H1792; first compound 2.53 µM): 0.397
- relative viability (NCI-H1915; first compound 0.08 µM): 0.253
- relative viability (NCI-H1915; first compound 0.8 µM): 0.264
- relative viability (NCI-H1915; first compound 2.53 µM): 0.239
- relative viability (NCI-H2085; first compound 0.08 µM): 0.804
- relative viability (NCI-H2085; first compound 0.253 µM): 0.792
- relative viability (NCI-H2085; first compound 0.8 µM): 0.711
- relative viability (NCI-H2085; first compound 2.53 µM): 0.79
- relative viability (NCI-H2087; first compound 0.08 µM): 0.671
- relative viability (NCI-H2087; first compound 0.8 µM): 0.635
- relative viability (NCI-H2087; first compound 2.53 µM): 0.459
- relative viability (NCI-H2228; first compound 0.08 µM): 0.56
- relative viability (NCI-H2228; first compound 0.253 µM): 0.332
- relative viability (NCI-H2228; first compound 0.8 µM): 0.732
- relative viability (NCI-H2228; first compound 2.53 µM): 0.419
- relative viability (NCI-H322M; first compound 0.08 µM): 0.768
- relative viability (NCI-H322M; first compound 0.253 µM): 0.733
- relative viability (NCI-H322M; first compound 0.8 µM): 0.638
- relative viability (NCI-H322M; first compound 2.53 µM): 0.637
- relative viability (NCI-H358; first compound 0.08 µM): 0.578
- relative viability (NCI-H358; first compound 0.253 µM): 0.522
- relative viability (NCI-H358; first compound 0.8 µM): 0.555
- relative viability (NCI-H358; first compound 2.53 µM): 0.517
- relative viability (NCI-H661; first compound 0.08 µM): 0.736
- relative viability (NCI-H661; first compound 0.253 µM): 0.759
- relative viability (NCI-H661; first compound 0.8 µM): 0.7
- relative viability (NCI-H661; first compound 2.53 µM): 0.654
- relative viability (NCI-H838; first compound 0.08 µM): 0.756
- relative viability (NCI-H838; first compound 0.253 µM): 0.768
- relative viability (NCI-H838; first compound 0.8 µM): 0.796
- relative viability (NCI-H838; first compound 2.53 µM): 0.75
- relative viability (PC-14; first compound 0.08 µM): 0.242
- relative viability (PC-14; first compound 0.253 µM): 0.235
- relative viability (PC-14; first compound 0.8 µM): 0.296
- relative viability (PC-14; first compound 2.53 µM): 0.233
- relative viability (PC-3 [JPC-3]; first compound 0.08 µM): 1.1
- relative viability (PC-3 [JPC-3]; first compound 0.253 µM): 1.08
- relative viability (PC-3 [JPC-3]; first compound 0.8 µM): 1.09
- relative viability (PC-3 [JPC-3]; first compound 2.53 µM): 1.04
- relative viability (SK-MES-1; first compound 0.08 µM): 0.734
- relative viability (SK-MES-1; first compound 0.253 µM): 0.704
- relative viability (SK-MES-1; first compound 0.8 µM): 0.738
- relative viability (SK-MES-1; first compound 2.53 µM): 0.762
- relative viability (UMC-11; first compound 0.08 µM): 0.413
- relative viability (UMC-11; first compound 0.253 µM): 0.997
- relative viability (UMC-11; first compound 0.8 µM): 0.343
- relative viability (UMC-11; first compound 2.53 µM): 0.352
